Experimental data from ChEMBL document CHEMBL1158467, “In vitro intrinsic clearance-based optimization of N3-phenylpyrazinones as corticotropin-releasing factor-1 (CRF1) receptor antagonists” (J Med Chem, 2009).
pIC50: −log10 of the molar value.

Key:
[1] = AUC in Sprague-Dawley rat at 10 mg/kg, po dosed as aqueous solution of oleoyl macrogolglyceride/DMAC/polysorbate 80, 85:10:5 within 0.25 to 24 hrs; format: ADME, organism-based; design: time 0.25-24 hr, dose 10 mg/kg, route oral; conditions: plasma
[2] = molecular target: T1, Corticotropin-releasing factor receptor 1 (Rattus norvegicus, UniProt P35353); assay: Displacement of [125I]ovine-CRF from CRF1 receptor in rat frontal cortex by rapid filtration technique; format: tissue-based
T1 sequence (P35353 whole entry): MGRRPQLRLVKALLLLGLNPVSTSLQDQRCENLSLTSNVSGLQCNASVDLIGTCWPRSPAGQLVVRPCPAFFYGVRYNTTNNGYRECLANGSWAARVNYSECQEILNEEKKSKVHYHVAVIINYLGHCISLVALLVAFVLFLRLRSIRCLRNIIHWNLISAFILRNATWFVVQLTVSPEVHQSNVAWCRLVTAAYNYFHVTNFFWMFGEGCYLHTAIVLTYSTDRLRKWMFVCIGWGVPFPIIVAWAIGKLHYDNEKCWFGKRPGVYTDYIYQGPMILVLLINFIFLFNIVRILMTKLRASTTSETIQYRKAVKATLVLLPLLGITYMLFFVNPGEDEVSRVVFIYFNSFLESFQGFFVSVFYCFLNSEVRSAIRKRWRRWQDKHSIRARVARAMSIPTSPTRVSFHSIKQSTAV

[3] = system: Rattus norvegicus; assay: Plasma free concentration in Sprague-Dawley rat at 10 mg/kg, po; format: ADME, organism-based; design: dose 10 mg/kg, route oral; conditions: in vivo
[4] = system: Rattus norvegicus; assay: Plasma free concentration in Sprague-Dawley rat at 1 mg/kg, po; format: ADME, organism-based; design: dose 1 mg/kg, route oral; conditions: in vivo
[5] = system: Rattus norvegicus; assay: Anxiolytic activity in Sprague-Dawley rat at 3 mg/kg, po assessed as decrease in exit latency after 60 mins by defensive withdrawal test relative to control; format: functional; design: scale not given: the % may be the effect or the level left
[6] = Half life in Sprague-Dawley rat 2 mg/kg, iv within 0.17 to 24 hrs; format: ADME, organism-based; design: dose 2 mg/kg, route intravenous; conditions: in vivo
[7] = system: Rattus norvegicus; assay: Anxiolytic activity in Sprague-Dawley rat at 1 mg/kg, po assessed as decrease in exit latency after 60 mins by defensive withdrawal test relative to control; format: functional; design: scale not given: the % may be the effect or the level left
[8] = Fraction unbound in Sprague-Dawley rat plasma at 10 mg/kg, po after 3 hrs by equilibrium dialysis; format: ADME, organism-based; design: dose 10 mg/kg, route oral
[9] = system: Rattus norvegicus; assay: Anxiolytic activity in Sprague-Dawley rat at 10 mg/kg, po assessed as decrease in exit latency after 60 mins by defensive withdrawal test relative to control; format: functional; design: scale not given: the % may be the effect or the level left
[10] = system: Rattus norvegicus; assay: Ex vivo receptor occupancy of CRF1 receptor in Sprague-Dawley rat brain at 3 mg/kg, po after 20 mins by autoradiography relative to [125I-tyrosine]sauvagine; format: functional
[11] = system: Rattus norvegicus; assay: Ex vivo receptor occupancy of CRF1 receptor in po dosed Sprague-Dawley rat brain after 20 mins by autoradiography; format: functional, organism-based
[12] = Aqueous solubility at pH 6.5; format: physicochemical
[13] = system: Rattus norvegicus; assay: Total plasma concentration in Sprague-Dawley rat at 10 mg/kg, po; format: ADME, organism-based; design: dose 10 mg/kg, route oral; conditions: in vivo
[14] = AUC in Sprague-Dawley rat at 10 mg/kg, po dosed as aqueous suspension of 1% polysorbate 80 in 0.5% methylcellulose within 0.25 to 24 hrs; format: ADME, organism-based; design: time 0.25-24 hr, dose 10 mg/kg, route oral; conditions: in vivo
[15] = system: Rattus norvegicus; assay: Oral bioavailability in Sprague-Dawley rat at 10 mg/kg dosed as aqueous solution of oleoyl macrogolglyceride/DMAC/polysorbate 80, 85:10:5 within 0.25 to 24 hrs; format: ADME, organism-based; conditions: in vivo
[16] = system: Rattus norvegicus; assay: Total plasma concentration in Sprague-Dawley rat at 1 mg/kg, po; format: ADME, organism-based; design: dose 1 mg/kg, route oral; conditions: in vivo
[17] = system: Rattus norvegicus; assay: Plasma free concentration in Sprague-Dawley rat at 3 mg/kg, po; format: ADME, organism-based; design: dose 3 mg/kg, route oral; conditions: in vivo
[18] = molecular target: T2, Corticotropin-releasing factor receptor 1 (Homo sapiens, UniProt P34998); assay: Antagonist activity at CRF1 receptor in human Y-79 cells assessed as inhibition of CRF-induced cAMP production after 30 mins by HTRF analysis
T2 sequence (P34998 whole entry): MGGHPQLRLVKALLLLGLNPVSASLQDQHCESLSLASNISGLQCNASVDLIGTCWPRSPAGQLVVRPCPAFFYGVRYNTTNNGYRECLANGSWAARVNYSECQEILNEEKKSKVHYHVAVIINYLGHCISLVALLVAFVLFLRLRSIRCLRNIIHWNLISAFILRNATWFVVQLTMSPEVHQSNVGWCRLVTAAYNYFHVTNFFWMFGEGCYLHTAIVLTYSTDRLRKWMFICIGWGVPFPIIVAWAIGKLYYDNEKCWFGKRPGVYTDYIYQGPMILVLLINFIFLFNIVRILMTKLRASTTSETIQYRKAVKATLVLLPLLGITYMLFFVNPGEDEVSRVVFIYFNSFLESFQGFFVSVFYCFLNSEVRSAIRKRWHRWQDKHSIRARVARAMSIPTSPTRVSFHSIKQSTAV

[19] = Cmax in Sprague-Dawley rat at 10 mg/kg, po dosed as aqueous suspension of 1% polysorbate 80 in 0.5% methylcellulose within 0.25 to 24 hrs; format: ADME, organism-based; design: dose 10 mg/kg, route oral; conditions: in vivo
[20] = Oral bioavailability in Sprague-Dawley rat at 10 mg/kg dosed as aqueous suspension of 1% polysorbate 80 in 0.5% methylcellulose within 0.25 to 24 hrs; format: ADME, organism-based; conditions: in vivo
[21] = Intrinsic clearance in human liver microsomes at 1 uM; format: ADME, Microsome
[22] = molecular target: Corticotropin releasing hormone receptor 2 (Sus scrofa, UniProt B8Q4Z9); assay: Displacement of [125I]sauvagine from CRF2 receptor in pig choroid plexus by rapid filtration technique; format: tissue-based
[23] = Clearance in Sprague-Dawley rat 2 mg/kg, iv within 0.17 to 24 hrs; format: ADME, organism-based; design: dose 2 mg/kg, route intravenous; conditions: in vivo
[24] = Volume of distribution at steady state in Sprague-Dawley rat 2 mg/kg, iv within 0.17 to 24 hrs; format: ADME, organism-based; design: dose 2 mg/kg, route intravenous; conditions: in vivo, read-out: Vdss
[25] = system: Rattus norvegicus; assay: Total plasma concentration in Sprague-Dawley rat at 3 mg/kg, po; format: ADME, organism-based; design: dose 3 mg/kg, route oral; conditions: in vivo
[26] = system: Rattus norvegicus; assay: Ex vivo receptor occupancy of CRF1 receptor in Sprague-Dawley rat brain at 1 mg/kg, po after 20 mins by autoradiography relative to [125I-tyrosine]sauvagine; format: functional
[27] = Aqueous solubility at pH 1; format: physicochemical
[28] = system: Rattus norvegicus; assay: Ex vivo receptor occupancy of CRF1 receptor in Sprague-Dawley rat brain at 10 mg/kg, po after 20 mins by autoradiography relative to [125I-tyrosine]sauvagine; format: functional
[29] = system: Rattus norvegicus; assay: Cmax in Sprague-Dawley rat at 10 mg/kg, po dosed as aqueous solution of oleoyl macrogolglyceride/DMAC/polysorbate 80, 85:10:5 within 0.25 to 24 hrs; format: ADME, organism-based; design: dose 10 mg/kg, route oral; conditions: in vivo

Corticotropin releasing hormone receptor 2, sequence (B8Q4Z9 whole entry): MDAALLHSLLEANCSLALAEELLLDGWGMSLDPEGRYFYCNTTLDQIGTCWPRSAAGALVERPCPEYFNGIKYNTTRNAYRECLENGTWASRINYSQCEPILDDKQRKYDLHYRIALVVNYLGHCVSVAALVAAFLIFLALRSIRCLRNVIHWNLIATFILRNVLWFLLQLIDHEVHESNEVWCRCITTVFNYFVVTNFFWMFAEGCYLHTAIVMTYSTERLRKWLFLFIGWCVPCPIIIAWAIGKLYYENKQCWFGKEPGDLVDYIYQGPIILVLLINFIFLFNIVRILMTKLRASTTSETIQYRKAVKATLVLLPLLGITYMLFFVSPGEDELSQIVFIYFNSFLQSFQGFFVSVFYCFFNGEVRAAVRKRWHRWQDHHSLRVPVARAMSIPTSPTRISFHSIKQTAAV

AUC [1]: 12 µM·h
pIC50 [2]: 9.00
Cp(f) [3]: 6.1 nM
Cp(f) [4]: 0.62 nM
half-life [6]: 7.8 h
fraction unbound at 3 h [8]: 0.0077
Activity [11]: Dose-dependent effect
solubility [12]: < 1 µg/mL
concentration [13]: 790 nM
AUC [14]: 1.3 µM·h
F [15]: 52%
concentration [16]: 80 nM
Cp(f) [17]: 2.1 nM
pIC50 [18]: 8.31
Cmax [19]: 100 nM
bioavailability [20]: 5%
CLint scaled at 1 µM [21]: 62 mL/min/kg
pIC50 [22]: < 5.00
clearance [23]: 17 mL/min/kg
Vd [24]: 4.7 L/kg
concentration [25]: 270 nM
solubility [27]: < 1 µg/mL
Cmax [29]: 1700 nM
Structure (SMILES): C[C@@H](C1CC1)n1cc(Cl)nc(Nc2c(Cl)cc(OC(F)F)cc2Cl)c1=O
Activity [5]: 46%
Activity [7]: 8%
Activity [9]: 61%
Activity [10]: 73%
Activity [26]: 43%
Activity [28]: 83%
